Data published in paper PMC5636616, “Studies on the Interaction of the Histone Demethylase KDM5B with Tricarboxylic Acid Cycle Intermediates” (Journal of Molecular Biology, 2017).
Entries after “also recorded” stand apart in the source; their conditions may differ. Where two headings read alike, the source gives them in different places. Blank lines part the entries; values can stand above or below the compound they belong to.

How the values were obtained:
isolated KDM5B = test system: isolated KDM5B; design: method as in PMID 28262558; conditions: AlphaScreen assay; cited from earlier work
[1] = test system: T1, over-expressed KDM5B in U2-OS cells; test: Immunofluorescence assay of H3K4me3 demethylation in U2-OS cells overexpressing KDM5B; type: cell-based, human; conditions: for inhibition of KDM5B-mediated H3K4me3 demethylation (IF): U2-OS cells overexpressing Flag-tagged WT KDM5B, 24 h treatment, esters dosed up to 5–10 mM
T1 construct: expressed in transfected cells; host or cells: U2-OS osteosarcoma cells, transient transfection with pCDNA5-FRT-TO-3FLAG vector
Protocol: EC50 curves for cells overexpressing Flag-tagged KDM5B. […] Results for dimethyl-2OG (a), dimethyl-succinate (b), dimethyl-D-2HG (c), dimethyl-L-2HG (d), octyl-D-2HG (e), octyl-L-2HG (f), and KDOAM-25 (g). Dashed lines represent IF levels in non-inhibitor controls.
The cellular effects of dimethyl ester precursors of TCA cycle-related metabolites as potential inhibitors of H3K4me3 demethylation were then assessed. We used an established immunofluorescence (IF) procedure with ectopically overexpressed wild-type KDM5B (WT KDM5B) in U2-OS cells and anti-H3K4me3 antibody monitoring for changes in H3K4me3 methylation levels. […] Cells with overexpressed KDM5B were treated with different concentrations of the TCA cycle-related pro-drug esters (previously established as cell permeable in other cell-based studies), [51], [52], [53], [54] for 24 h, the H3K4me3 levels were then analyzed in the transfected cells. The reported KDM5B inhibitor KDOAM-25 ((2)-((((2)-(((2)-(dimethylamino)ethyl)(ethyl)amino)-(2)-oxoethyl)amino)methyl)isonicotinamide) was used as a positive control for inhibition, [55].
Immunofluorescent cell-based assays were performed as reported. The human U2-OS osteosarcoma cells were cultured as a monolayer in Dulbecco's modified Eagle's medium (Invitrogen) supplemented with 10% heat-inactivated fetal bovine serum (Life Technologies) and 1% Glutamax. […] Cells were transiently transfected using cDNA and Lipofectamine 3000 (Life Technologies). Four hours after transfection, the cells were subjected to treatment with serial dilutions of compound. After 24 h, the cells were fixed with 4% formaldehyde and stained with anti-Flag antibody (Sigma F3165), an anti-methylated histone antibody (H3K4me3 DiagenodeC15410003). The cells were then stained with secondary antibodies [Alexa Fluor 488 and Alexa Fluor 568-labeled (Life Technologies)] and 4’,6-diamidino-2-phenylindole. Image acquisition was conducted using Operetta High Content Imaging System (PerkinElmer), and image analysis was performed using the Columbus software (PerkinElmer). A minimum threshold for anti-Flag intensity was set to ensure that only cells highly producing the demethylase were analyzed.

FIH = conditions: cited from earlier work
KDM4E = conditions: cited from earlier work; for IC50: enzyme concentration 2 μM
TET1 = conditions: cited from earlier work
TET2 = conditions: cited from earlier work
KDM5B [2] = biological target: T2, KDM5B (Homo sapiens, UniProt Q9UGL1); test: KDM5B inhibition assay, MALDI-TOF-MS (IC50); type: biochemical
T2 construct: purified recombinant KDM5B (produced in Sf9 insect cells, M1-R822); made in house; host or cells: Sf9 insect cells
T2 sequence (Q9UGL1 1-822): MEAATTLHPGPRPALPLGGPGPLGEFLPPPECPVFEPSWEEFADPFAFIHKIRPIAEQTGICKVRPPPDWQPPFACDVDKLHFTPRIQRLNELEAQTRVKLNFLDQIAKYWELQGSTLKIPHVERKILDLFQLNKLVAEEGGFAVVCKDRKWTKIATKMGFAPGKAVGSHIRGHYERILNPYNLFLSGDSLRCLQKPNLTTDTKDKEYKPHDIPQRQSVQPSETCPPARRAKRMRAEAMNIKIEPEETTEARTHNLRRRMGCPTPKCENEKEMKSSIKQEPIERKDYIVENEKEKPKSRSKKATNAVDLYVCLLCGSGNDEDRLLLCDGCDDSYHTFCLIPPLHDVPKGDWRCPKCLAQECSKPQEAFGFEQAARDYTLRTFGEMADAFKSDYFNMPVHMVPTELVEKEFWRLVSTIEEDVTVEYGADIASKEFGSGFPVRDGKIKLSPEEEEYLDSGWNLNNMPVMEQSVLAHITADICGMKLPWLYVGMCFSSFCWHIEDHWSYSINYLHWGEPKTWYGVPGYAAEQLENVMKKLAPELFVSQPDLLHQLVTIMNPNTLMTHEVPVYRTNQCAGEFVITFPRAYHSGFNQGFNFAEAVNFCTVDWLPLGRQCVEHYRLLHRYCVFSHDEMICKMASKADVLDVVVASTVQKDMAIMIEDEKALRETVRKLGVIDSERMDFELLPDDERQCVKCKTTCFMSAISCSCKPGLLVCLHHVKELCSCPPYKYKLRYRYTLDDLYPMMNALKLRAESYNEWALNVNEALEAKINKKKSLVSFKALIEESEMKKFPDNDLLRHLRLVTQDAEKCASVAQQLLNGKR

PHD2 = conditions: cited from earlier work
BBOX = conditions: cited from earlier work; for IC50: enzyme concentration 0.025 μM
KDM2A = test system: KDM2A; design: method as in PMID 21460794; conditions: cited from earlier work; for IC50: enzyme concentration 2 μM
KDM5B [3] = biological target: T2, KDM5B; test: KDM5B kinetic assays, MALDI-TOF-MS (Km, Ki with respect to 2OG); type: biochemical; conditions: for mode of inhibition: with respect to 2OG
KDM5B [4] = biological target: T2, KDM5B; conditions: FDH-coupled assay, truncated KDM5B, cited from earlier work
U2-OS cells = test: Toxicity to U2-OS cells in the cellular assay; type: cell-based, human; conditions: data not shown
ABH2 = test system: ABH2; design: method as in PMID 21460794; conditions: read-out: Km^app(2OG); cited from earlier work
KDM4C = test system: KDM4C; design: method as in PMID 21460794; conditions: read-out: Km^app(2OG); cited from earlier work
KDM4A = test system: KDM4A; design: method as in PMID 21460794; conditions: read-out: Km^app(2OG); cited from earlier work
[5] = 0.6 μM KDM5B, 3 μM 2OG, 5 μM H3K4me2(1–21), 10 μM Fe(II), 500 μM L-ascorbate, pH 7.5, errors 95% confidence intervals

Compound: CCN(CCN(C)C)C(=O)CNCc1cc(C(N)=O)ccn1 [KDOAM-25, (2)-((((2)-(((2)-(dimethylamino)ethyl)(ethyl)amino)-(2)-oxoethyl)amino)methyl)isonicotinamide]
- IC50 (isolated KDM5B): 0.019 µM
- inhibition of KDM5B-mediated H3K4me3 demethylation (IF) [1]: manifested the expected levels of inhibition; also recorded: observe inhibition
- compound concentration at which H3K4me3 fluorescence reaches levels of KDM5B Mut ([1]; U2-OS cells overexpressing WT KDM5B, 24 h): 1 mM

Compound: O=C(O)/C=C/C(=O)O [Fumarate]
- IC50 (FIH): > 1000 µM
- IC50 (KDM4E): 2.3 µM
- IC50 (TET1): 390 ± 160 µM
- IC50 (TET2): 400 ± 70 µM
- IC50 (KDM5B [2]): 210 ± 80 µM
- IC50 (PHD2): 3 µM

Compound: O=C(O)CC[C@@H](O)C(=O)O [D-2HG, D-2-hydroxyglutarate]
- IC50 (BBOX): 13200 µM
- IC50 (KDM2A): 106 ± 22 µM
- IC50 (TET2): 5000 µM

Compound: COC(=O)CC[C@H](O)C(=O)OC [dimethyl-L-2HG]
- inhibition of KDM5B-mediated H3K4me3 demethylation (IF) [1]: do not inhibit; also recorded: no inhibition of KDM5B activity was observed

- IC50 (KDM5B [2]; [5]): Inactive
- IC50 (KDM5B [2]; read-out: IC50): > 1000 µM
- inhibition at 1000 µM (KDM5B [2]; read-out: inhibition at 1 mM): 18%
Compound: O=C(O)CC(O)(CC(=O)O)C(=O)O [Citrate]

- IC50 (KDM5B [2]; read-out: IC50): 15 ± 10 µM
- Vm^app (KDM5B [3]; in presence of 15 μM oxaloacetate): 0.0066 µM/s
- Vm^app (KDM5B [3]; in presence of 50 μM oxaloacetate): 0.0070 µM/s
- Vm^app (KDM5B [3]; in presence of 100 μM oxaloacetate): 0.0069 µM/s
- mode of inhibition (KDM5B [3]): 2OG competitive manner
Compound: O=C(O)CC(=O)C(=O)O [Oxaloacetate]

- Km (KDM5B [3]; KDM5B(1–822), 10 μM 2OG, read-out: Km^app(H3K4me2(1–21))): ~0.5 µM
Compound: H3K4me2(1–21): 21-mer histone H3 peptide fragment dimethylated at lysine-4, KDM5B substrate [reference compound]
- Km (KDM5B [4]; read-out: Km^app for H3K4me2(1–21)): 0.85 µM

Compound: CCCCCCCCOC(=O)[C@@H](O)CCC(=O)O [octyl-L-2HG]
- inhibition of KDM5B-mediated H3K4me3 demethylation (IF) [1]: do not inhibit; also recorded: no inhibition of KDM5B activity was observed

Compound: COC(=O)CC[C@@H](O)C(=O)OC [dimethyl-D-2HG]
- inhibition of KDM5B-mediated H3K4me3 demethylation (IF) [1]: do not inhibit; also recorded: no inhibition of KDM5B activity was observed

Compound: O=C(O)CCC(=O)O [Succinate, succinate]
- IC50 (FIH): > 1000 µM
- IC50 (KDM4E): 320 µM
- IC50 (TET1): 540 ± 100 µM
- IC50 (TET2): 570 ± 190 µM
- IC50 (KDM5B [2]; read-out: IC50): 62 ± 19 µM
- Ki (KDM5B [3]; competitive inhibition model, shared/global fit, read-out: Ki (best-fit value, GraphPad Prism global fit)): 26.8 µM
- Vm^app (KDM5B [3]; in presence of 30 μM succinate): 0.0044 µM/s
- Vm^app (KDM5B [3]; in presence of 100 μM succinate): 0.0046 µM/s
- Vm^app (KDM5B [3]; in presence of 300 μM succinate): 0.0046 µM/s
- mode of inhibition (KDM5B [3]): 2OG competitive manner
- IC50 (PHD2): 19 µM

- IC50 (KDM5B [2]; read-out: IC50): 127 ± 72 µM
Compound: O=C(O)CC(O)C(=O)O (centres unmarked) [Malate, malate]

Compound: COC(=O)CCC(=O)C(=O)OC [dimethyl-2OG, Dimethyl-2-oxoglutarate]
- inhibition of KDM5B-mediated H3K4me3 demethylation (IF) [1]: do not inhibit; also recorded: no inhibition of KDM5B activity was observed
- change in H3K4me3 levels / KDM5B activity in response to compound ([1]; U2-OS cells overexpressing KDM5B, increasing concentrations, 24 h): No decrease in the H3K4me3 levels was observed; also recorded: did not show any effect

Compound: O=C(O)CC[C@H](O)C(=O)O [L-2HG, L-2-hydroxyglutarate]
- IC50 (FIH; enzyme concentration 1 μM): 189 ± 34 µM
- IC50 (BBOX): 142 ± 30 µM
- IC50 (TET1): 1000 µM
- IC50 (KDM2A): 48 ± 15 µM
- IC50 (TET2): 1600 µM

Compound: CCCCCCCCOC(=O)[C@H](O)CCC(=O)O [octyl-D-2HG]
- inhibition of KDM5B-mediated H3K4me3 demethylation (IF) [1]: do not inhibit; also recorded: no inhibition of KDM5B activity was observed

Compound: COC(=O)/C=C/C(=O)OC [dimethylfumarate]
- toxic concentration (U2-OS cells): higher than 400 μM
- inhibition of KDM5B-mediated H3K4me3 demethylation (IF) [1]: no inhibition of KDM5B activity was observed
- inhibition of KDM5B-mediated H3K4me3 demethylation (IF) ([1]; listed as Dimethylfumarate): did not show any inhibition at lower concentrations

- IC50 (KDM5B [2]; [5]): very weak KDM5B inhibitor
- IC50 (KDM5B [2]; read-out: IC50): 703 ± 26 µM
Compound: CC(=O)C(=O)O [Pyruvate, pyruvate]

Compound: COC(=O)CCC(=O)OC [dimethyl-succinate, dimethylsuccinate]
- inhibition of KDM5B-mediated H3K4me3 demethylation (IF) [1]: do not inhibit

Compound: O=C(O)CCC(=O)C(=O)O [2OG, 2-oxoglutarate]
- Km (KDM5B [4]; read-out: Km^app(2OG)): 6 µM
- Km (FIH; read-out: Km^app(2OG)): 110 ± 20 µM
- Km (BBOX; read-out: Km^app(2OG)): 470 µM
- Km (KDM4E; read-out: Km^app(2OG)): 13.2 µM
- Km (TET1; read-out: Km^app(2OG)): 55 ± 20 µM
- Km (ABH2): 10 µM
- Km (KDM4C): 4 µM
- Km (KDM2A; read-out: Km^app(2OG)): 12.5 µM
- Km (TET2; read-out: Km^app(2OG)): 60 ± 15 µM
- Km (KDM4A): 6 µM
- Km (PHD2; read-out: Km^app(2OG)): 13 ± 2 µM
